{"source": "ChEMBL document CHEMBL5465560", "about": "“Selectivity Literature for EUbOPEN Chemogenomic Library” (2024)", "key": {"[1]": {"target": "Dual specificity testis-specific protein kinase 1 (Homo sapiens) (UniProt Q15569)", "sequence (Q15569 whole entry, looked up)": "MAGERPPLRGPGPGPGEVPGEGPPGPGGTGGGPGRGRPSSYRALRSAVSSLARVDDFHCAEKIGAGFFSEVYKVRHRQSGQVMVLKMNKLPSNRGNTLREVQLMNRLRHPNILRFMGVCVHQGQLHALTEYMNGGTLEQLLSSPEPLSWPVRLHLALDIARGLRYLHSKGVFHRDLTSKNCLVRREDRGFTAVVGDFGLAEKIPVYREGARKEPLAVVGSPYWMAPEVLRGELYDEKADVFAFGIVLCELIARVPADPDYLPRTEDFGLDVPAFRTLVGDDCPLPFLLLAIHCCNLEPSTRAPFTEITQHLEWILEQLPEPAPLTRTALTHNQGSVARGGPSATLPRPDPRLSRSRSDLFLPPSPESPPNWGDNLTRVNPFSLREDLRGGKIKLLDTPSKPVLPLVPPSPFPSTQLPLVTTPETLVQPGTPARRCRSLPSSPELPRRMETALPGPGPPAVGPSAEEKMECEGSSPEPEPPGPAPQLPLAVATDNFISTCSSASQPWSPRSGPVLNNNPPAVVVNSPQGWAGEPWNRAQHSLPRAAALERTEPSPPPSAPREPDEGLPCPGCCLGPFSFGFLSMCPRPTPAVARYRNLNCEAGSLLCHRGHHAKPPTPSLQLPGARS", "assay": "Selectivity interaction (KinomeScan (DiscoverX)) EUB0000092b TESK1", "conditions": "at 10 µM"}, "[2]": {"target": "Dual specificity tyrosine-phosphorylation-regulated kinase 1A (Homo sapiens, UniProt Q13627)", "assay": "Selectivity interaction (KinomeScan (DiscoverX)) EUB0000655a DYRK1A", "conditions": "at 10 µM"}, "[3]": {"target": "1-phosphatidylinositol 3-phosphate 5-kinase (Homo sapiens) (UniProt Q9Y2I7)", "assay": "Selectivity interaction (Kinase panel (KiNativ target engagement assay in Jurkat cells)) EUB0001635a PIKFYVE", "assay_type": "cell-based", "conditions": "Selectivity number of off-targets 0.0, Selectivity number of targets 233.0, Source Knowledge https://www.sciencedirect.com/science/article/pii/S2451945619300674?via%3Dihub, at 1 µM"}, "[4]": {"target": "Wee1-like protein kinase (Homo sapiens) (UniProt P30291)", "assay": "Selectivity interaction (Kinase panel (KiNativ target engagement assay in Jurkat cells)) EUB0001635a WEE1", "assay_type": "cell-based", "conditions": "at 1 µM"}, "[5]": {"target": "T1, Serine/threonine-protein kinase DCLK1 (Homo sapiens) (UniProt O15075)", "T1 sequence (whole entry)": "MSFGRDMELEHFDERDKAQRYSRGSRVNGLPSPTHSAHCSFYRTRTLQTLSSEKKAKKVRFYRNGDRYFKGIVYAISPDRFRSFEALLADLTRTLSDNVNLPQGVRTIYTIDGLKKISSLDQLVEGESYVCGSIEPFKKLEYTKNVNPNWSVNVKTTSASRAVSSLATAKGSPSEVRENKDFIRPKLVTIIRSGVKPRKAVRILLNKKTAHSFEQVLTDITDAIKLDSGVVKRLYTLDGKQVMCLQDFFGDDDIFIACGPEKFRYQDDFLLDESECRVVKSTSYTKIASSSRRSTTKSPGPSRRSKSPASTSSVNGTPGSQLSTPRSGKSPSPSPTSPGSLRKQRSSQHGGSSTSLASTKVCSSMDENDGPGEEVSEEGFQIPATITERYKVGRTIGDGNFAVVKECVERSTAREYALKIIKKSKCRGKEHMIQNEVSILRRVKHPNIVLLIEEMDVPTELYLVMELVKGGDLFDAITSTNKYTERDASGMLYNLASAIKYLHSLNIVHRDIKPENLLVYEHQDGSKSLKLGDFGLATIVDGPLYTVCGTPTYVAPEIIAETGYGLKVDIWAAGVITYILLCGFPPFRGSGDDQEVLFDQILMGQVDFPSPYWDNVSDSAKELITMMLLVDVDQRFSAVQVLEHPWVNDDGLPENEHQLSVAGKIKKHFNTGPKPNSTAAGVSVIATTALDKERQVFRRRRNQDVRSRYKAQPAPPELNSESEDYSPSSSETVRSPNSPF", "assay": "Selectivity interaction (KinomeScan (DiscoverX)) EUB0000666a DCLK1", "conditions": "at 10 µM"}, "[6]": {"target": "Ribosomal protein S6 kinase alpha-3 (Homo sapiens, UniProt P51812)", "assay": "Selectivity interaction (KinomeScan (DiscoverX)) EUB0000666a RPS6KA3", "conditions": "at 10 µM"}, "[7]": {"target": "Receptor tyrosine-protein kinase erbB-2 (Homo sapiens, UniProt P04626)", "sequence (P04626 whole entry)": "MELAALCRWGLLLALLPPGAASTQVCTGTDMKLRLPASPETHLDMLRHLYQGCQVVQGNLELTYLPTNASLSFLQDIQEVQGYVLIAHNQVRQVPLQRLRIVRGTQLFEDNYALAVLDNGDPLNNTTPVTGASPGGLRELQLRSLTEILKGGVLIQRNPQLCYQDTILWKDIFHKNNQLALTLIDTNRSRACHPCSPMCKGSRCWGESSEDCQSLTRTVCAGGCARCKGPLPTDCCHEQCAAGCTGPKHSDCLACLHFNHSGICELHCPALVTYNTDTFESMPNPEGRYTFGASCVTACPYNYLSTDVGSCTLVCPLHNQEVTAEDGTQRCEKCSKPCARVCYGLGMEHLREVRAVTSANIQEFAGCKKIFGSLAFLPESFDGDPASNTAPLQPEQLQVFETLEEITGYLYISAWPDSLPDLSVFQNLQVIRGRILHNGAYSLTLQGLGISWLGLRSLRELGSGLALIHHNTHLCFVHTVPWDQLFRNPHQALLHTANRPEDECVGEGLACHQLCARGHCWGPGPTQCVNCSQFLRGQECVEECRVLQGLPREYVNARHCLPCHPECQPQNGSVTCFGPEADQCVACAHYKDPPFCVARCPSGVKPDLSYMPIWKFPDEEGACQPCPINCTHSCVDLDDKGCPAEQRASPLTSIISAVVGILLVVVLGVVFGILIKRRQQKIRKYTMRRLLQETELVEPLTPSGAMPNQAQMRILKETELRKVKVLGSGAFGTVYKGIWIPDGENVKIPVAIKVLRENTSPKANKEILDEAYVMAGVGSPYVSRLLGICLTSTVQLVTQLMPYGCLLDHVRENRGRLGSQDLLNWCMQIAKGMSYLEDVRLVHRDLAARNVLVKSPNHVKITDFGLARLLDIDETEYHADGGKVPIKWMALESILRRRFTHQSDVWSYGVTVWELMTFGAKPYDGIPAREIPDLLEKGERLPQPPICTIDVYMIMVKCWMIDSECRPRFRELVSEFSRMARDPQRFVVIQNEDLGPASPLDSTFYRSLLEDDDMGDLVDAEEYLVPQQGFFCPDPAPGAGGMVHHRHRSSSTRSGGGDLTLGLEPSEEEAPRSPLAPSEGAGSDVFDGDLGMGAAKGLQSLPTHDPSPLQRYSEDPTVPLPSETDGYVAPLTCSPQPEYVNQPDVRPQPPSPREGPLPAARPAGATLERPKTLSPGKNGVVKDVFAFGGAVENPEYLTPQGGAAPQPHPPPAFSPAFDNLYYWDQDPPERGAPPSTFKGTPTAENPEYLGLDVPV", "assay": "Selectivity interaction (Radiometric kinase assay (using 10 uM ATP)) EUB0000601a ERBB2"}, "[8]": {"target": "BDNF/NT-3 growth factors receptor (Homo sapiens) (UniProt Q16620)", "sequence (Q16620 32-822 limits assumed)": "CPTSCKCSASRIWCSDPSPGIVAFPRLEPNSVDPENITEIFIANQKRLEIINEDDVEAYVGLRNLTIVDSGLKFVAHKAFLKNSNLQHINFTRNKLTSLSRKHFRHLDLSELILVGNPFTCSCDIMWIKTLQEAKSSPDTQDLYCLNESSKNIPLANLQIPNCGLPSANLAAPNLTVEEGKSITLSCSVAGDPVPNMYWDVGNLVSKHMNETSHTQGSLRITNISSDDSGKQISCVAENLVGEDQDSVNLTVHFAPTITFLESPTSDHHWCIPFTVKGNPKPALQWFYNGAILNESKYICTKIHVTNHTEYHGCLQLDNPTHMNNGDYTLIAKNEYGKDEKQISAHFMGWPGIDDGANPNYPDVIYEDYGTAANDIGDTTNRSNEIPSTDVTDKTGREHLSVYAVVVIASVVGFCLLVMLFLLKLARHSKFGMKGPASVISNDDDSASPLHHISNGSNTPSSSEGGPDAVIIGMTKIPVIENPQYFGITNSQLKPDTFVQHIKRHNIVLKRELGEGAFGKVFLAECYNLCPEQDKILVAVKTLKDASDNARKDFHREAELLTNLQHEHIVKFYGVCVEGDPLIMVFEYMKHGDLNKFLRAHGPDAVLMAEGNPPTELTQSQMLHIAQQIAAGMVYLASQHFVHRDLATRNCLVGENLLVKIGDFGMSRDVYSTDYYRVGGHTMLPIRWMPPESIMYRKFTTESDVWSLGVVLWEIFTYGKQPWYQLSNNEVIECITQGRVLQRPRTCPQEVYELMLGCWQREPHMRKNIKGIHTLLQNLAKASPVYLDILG", "assay": "Selectivity interaction (KinaseProfiler screening (Millipore)) EUB0000601a NTRK2", "conditions": "at 3 µM"}, "[9]": {"target": "T2, Serine/threonine-protein kinase Sgk3 (Homo sapiens) (UniProt Q96BR1)", "T2 sequence (whole entry)": "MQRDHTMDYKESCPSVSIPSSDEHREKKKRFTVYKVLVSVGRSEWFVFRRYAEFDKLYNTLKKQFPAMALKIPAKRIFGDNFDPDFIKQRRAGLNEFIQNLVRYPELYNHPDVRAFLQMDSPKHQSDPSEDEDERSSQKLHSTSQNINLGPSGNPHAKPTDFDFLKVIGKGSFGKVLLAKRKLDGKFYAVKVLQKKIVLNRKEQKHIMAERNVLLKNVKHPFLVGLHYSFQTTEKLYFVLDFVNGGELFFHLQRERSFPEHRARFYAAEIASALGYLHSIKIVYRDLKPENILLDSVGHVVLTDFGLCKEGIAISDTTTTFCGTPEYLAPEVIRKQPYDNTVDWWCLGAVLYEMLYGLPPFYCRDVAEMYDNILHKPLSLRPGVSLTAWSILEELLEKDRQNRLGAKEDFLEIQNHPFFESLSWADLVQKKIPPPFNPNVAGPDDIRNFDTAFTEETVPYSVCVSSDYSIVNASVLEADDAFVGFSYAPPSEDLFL", "conditions": "at 10 µM"}, "[10]": {"target": "Protein kinase C gamma type (Homo sapiens) (UniProt P05129)", "assay": "Selectivity interaction (SelectScreen profiling (Invitrogen)) EUB0000607a PRKCG", "conditions": "at 2 µM"}, "[11]": {"target": "T3, Serine/threonine-protein kinase Sgk2 (Homo sapiens) (UniProt Q9HBY8)", "T3 sequence (whole entry)": "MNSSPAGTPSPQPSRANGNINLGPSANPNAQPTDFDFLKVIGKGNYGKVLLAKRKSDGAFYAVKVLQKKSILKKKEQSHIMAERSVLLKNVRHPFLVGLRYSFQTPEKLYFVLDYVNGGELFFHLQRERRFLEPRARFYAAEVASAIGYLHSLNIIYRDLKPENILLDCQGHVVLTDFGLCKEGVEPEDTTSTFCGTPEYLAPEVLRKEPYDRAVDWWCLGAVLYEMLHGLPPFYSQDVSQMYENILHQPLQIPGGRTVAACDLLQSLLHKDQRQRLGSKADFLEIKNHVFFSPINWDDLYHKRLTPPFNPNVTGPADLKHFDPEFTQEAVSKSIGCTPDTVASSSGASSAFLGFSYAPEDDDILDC", "assay": "Selectivity interaction (KinomeScan (DiscoverX)) EUB0000695a SGK2", "conditions": "at 100 nM"}, "[12]": {"target": "Serine/threonine-protein kinase Nek4 (Homo sapiens) (UniProt P51957)", "sequence (P51957 whole entry, looked up)": "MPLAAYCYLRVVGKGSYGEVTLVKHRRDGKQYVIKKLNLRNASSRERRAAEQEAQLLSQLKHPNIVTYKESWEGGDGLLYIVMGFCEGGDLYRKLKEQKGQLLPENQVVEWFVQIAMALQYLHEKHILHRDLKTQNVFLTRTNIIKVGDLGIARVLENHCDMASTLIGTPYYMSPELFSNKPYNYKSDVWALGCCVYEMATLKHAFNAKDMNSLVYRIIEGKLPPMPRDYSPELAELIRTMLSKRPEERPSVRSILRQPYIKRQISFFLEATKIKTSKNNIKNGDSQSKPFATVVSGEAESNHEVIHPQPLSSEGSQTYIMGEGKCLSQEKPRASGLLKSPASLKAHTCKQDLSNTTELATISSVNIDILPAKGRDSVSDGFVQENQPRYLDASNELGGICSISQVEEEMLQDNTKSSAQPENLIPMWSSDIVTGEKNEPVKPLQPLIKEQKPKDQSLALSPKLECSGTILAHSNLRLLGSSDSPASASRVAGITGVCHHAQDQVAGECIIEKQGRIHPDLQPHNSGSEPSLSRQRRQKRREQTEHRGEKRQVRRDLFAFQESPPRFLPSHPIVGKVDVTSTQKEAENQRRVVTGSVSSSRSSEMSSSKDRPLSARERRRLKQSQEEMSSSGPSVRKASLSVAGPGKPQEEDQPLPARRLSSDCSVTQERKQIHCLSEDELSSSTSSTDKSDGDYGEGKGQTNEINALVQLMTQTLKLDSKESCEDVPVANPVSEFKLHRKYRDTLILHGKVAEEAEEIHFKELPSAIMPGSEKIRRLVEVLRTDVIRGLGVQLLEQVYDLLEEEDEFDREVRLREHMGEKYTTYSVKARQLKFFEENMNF", "assay": "Selectivity interaction (KinomeScan (DiscoverX)) EUB0000695a NEK4", "conditions": "at 100 nM"}, "[13]": {"target": "Wee1-like protein kinase 2 (Homo sapiens) (UniProt P0C1S8)", "assay": "Selectivity interaction (KinomeScan (DiscoverX)) EUB0000695a WEE2", "conditions": "at 100 nM"}, "[14]": {"target": "Platelet-derived growth factor receptor alpha (Homo sapiens, UniProt P16234)", "sequence (P16234 whole entry)": "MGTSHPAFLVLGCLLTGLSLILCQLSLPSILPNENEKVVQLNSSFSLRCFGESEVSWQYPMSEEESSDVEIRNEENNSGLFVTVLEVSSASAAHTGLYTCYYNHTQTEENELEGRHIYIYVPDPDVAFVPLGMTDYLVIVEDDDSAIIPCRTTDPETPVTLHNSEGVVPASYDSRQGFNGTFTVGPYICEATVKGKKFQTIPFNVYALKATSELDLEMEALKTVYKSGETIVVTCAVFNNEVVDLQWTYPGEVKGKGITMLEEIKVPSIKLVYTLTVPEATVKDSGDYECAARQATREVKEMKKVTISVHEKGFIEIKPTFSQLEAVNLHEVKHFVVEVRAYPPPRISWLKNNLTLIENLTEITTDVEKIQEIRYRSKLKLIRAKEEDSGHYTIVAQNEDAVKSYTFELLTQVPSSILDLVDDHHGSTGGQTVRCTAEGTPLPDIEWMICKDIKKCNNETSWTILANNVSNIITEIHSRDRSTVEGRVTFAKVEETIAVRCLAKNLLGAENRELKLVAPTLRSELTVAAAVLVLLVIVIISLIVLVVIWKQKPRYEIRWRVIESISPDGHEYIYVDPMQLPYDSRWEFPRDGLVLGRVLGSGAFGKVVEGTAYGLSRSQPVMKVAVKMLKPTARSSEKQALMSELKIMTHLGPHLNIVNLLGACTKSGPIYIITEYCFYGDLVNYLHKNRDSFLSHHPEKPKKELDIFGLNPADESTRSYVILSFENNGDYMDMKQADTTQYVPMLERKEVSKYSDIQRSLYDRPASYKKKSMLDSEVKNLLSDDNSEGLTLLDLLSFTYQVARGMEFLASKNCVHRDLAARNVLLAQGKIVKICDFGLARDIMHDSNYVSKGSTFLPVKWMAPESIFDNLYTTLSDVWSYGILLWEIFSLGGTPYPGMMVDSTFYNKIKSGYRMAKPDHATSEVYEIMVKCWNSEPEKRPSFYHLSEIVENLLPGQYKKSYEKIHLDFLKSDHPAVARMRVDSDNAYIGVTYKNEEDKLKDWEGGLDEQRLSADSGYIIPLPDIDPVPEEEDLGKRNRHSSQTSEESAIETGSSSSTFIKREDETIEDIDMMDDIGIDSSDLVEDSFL", "assay": "Selectivity interaction (KinomeScan (DiscoverX)) EUB0000045b PDGFRA"}, "[15]": {"target": "Mitogen-activated protein kinase 4 (Homo sapiens) (UniProt P31152)", "assay": "Selectivity interaction (KinomeScan (DiscoverX)) EUB0000618a MAPK4", "conditions": "at 10 µM"}}, "note": "pIC50: −log10 of the molar value.", "data": [{"compound": "CCC(=O)N1CCN(c2ccc(-n3c(=O)ccc4cnc5ccc(-c6cnc7ccccc7c6)cc5c43)cc2C(F)(F)F)CC1", "values": [{"measurement": "% of control", "setting": "[1]", "value": 58, "unit": "%"}]}, {"compound": "CN(C)CCOc1ccc(-c2nc(-c3ccncc3)c(-c3ccc4c(c3)CC/C4=N\\O)[nH]2)cc1", "values": [{"measurement": "% of control", "setting": "[2]", "value": 94, "unit": "%"}]}, {"compound": "C=CC(=O)Nc1ccc(C(=O)Nc2[nH]nc3c2CN(C(=O)N[C@H](CN(C)C)c2ccccc2)C3(C)C)cc1", "values": [{"measurement": "% of engagement", "setting": "[3]", "value": -3.5, "unit": "%"}, {"measurement": "% of engagement", "setting": "[4]", "value": 24, "unit": "%"}]}, {"compound": "O=C(NOC[C@H](O)CO)c1ccc(F)c(F)c1Nc1ccc(I)cc1F", "values": [{"measurement": "% of control", "setting": "[5]", "value": 100, "unit": "%"}, {"measurement": "% of control", "setting": "[6]", "value": 100, "unit": "%"}]}, {"compound": "CCc1cc(Nc2nccc(-c3c(-c4ccc(OC)c(C(=O)Nc5c(F)cccc5F)c4)nc4ccccn34)n2)c(OC)cc1N1CCC(N2CCN(S(C)(=O)=O)CC2)CC1", "values": [{"measurement": "pIC50", "setting": "[7]", "value": "< 5.00"}, {"measurement": "% of inhibition", "setting": "[8]", "value": 47, "unit": "%"}]}, {"compound": "Cc1cc([C@@H](C)Nc2ccccc2C(=O)O)c2nc(N3CCOCC3)cc(=O)n2c1", "note": "[AZD-6482]", "values": [{"measurement": "% of control", "setting": "[9]", "value": 86, "unit": "%"}]}, {"compound": "CNC(=O)Nc1ccc(-c2nc(N3CC4CCC(C3)O4)c3cnn(C4CCC5(CC4)OCCO5)c3n2)cc1", "values": [{"measurement": "% of inhibition", "setting": "[10]", "value": 11, "unit": "%"}]}, {"compound": "Cc1cc(F)c(C(=O)Nc2cccc(-c3nncn3C(C)C)n2)cc1-n1cnc(C2CC2)c1", "values": [{"measurement": "% of control", "setting": "[11]", "value": 100, "unit": "%"}, {"measurement": "% of control", "setting": "[12]", "value": 100, "unit": "%"}, {"measurement": "% of control", "setting": "[13]", "value": 100, "unit": "%"}]}, {"compound": "C=CC(=O)Nc1cc(-n2c(=O)ccc3cnc4ccc(-c5ccc(NS(C)(=O)=O)cc5)cc4c32)ccc1C", "values": [{"measurement": "% of control", "setting": "[14]; at 1 µM", "value": 92, "unit": "%"}, {"measurement": "% of control", "setting": "[14]; at 10 µM", "value": 100, "unit": "%"}]}, {"compound": "O[C@H]1CC[C@H](Nc2ncc3nc(Nc4c(F)cc(F)cc4F)n([C@H]4CCOC4)c3n2)CC1", "values": [{"measurement": "% of control", "setting": "[15]", "value": 42, "unit": "%"}]}]}
